Laboratory results as given in patent US20250122192A1, “5-PYRIMIDINECARBOXAMIDE DERIVATIVES AND METHODS OF USING THE SAME” (Rgenta Therapeutics, Inc., priority 2021, published 2025).
Structures can show the parent of a compound that is named as a salt.

Tested on: PMS1
Test: Mini-gene reporter assay-PMS1
Assay type: cell-based
Settings: Homo sapiens, HEK293, PMS1 mini-gene firefly luciferase reporter transiently transfected into HEK293 cells; read-out: PMS1 IC50
From the text: Biological Activity of the Compounds of the Present Disclosure Mini-gene reporter assay-PMS1
Mini-gene reporter constructs for each target site can be constructed by first PCR amplifying the region-of-interest including the sequence of the alternatively skipped, sequences of the immediate upstream and downstream introns, and sequences of the immediate upstream and downstream exons. Then the 3′end of the amplified sequence can be ligated to a firefly luciferase reporter gene and cloned into the pcDNA3.1 vector backbone. The final reporter construct can be transiently transfected into HEK293 cells using Lipofectamine 3000 transfection reagents. Compounds that can induce the inclusion of the skipped exon in the reporter construct would increase the reporter firefly luciferase activity.
Test compounds may be diluted in duplicates and dispensed into an assay plate. Transient mini-gene reporter cell line stock is resuspended and dispensed into the assay plate. Assay plates are then centrifuged and incubated. A luciferase reagent (e.g. ONE-Glo firefly luciferase reagent from Promega®) may be added to the assay plate and the luminescence (RLU) signals recorded. PMS1 EC50 values may be determined by curve fitting in Levenberg-Marquardt algorithm.

SMILES	IC50
CCOc1nc(N(C)[C@@H]2C[C@H]3CC[C@@H](C2)N3)ncc1C(=O)Nc1cn2cc(C)nc2c(C)n1 [Compound 56]	0.5 to 1 µM
CCOc1nc(N2CC(CO)C3(CNC3)C2)ncc1C(=O)Nc1cc(F)c2nc(C)cn2c1 (stereo not shown) [Compound 165]	1 to 3 µM
CCOc1nc(N2CC3CNCC3C2)ncc1C(=O)Nc1cc(F)c2nc(C)cn2c1 (stereo not shown) [Compound 8, 4-ethoxy-N-{8-fluoro-2-methylimidazo[1,2-a]pyridin-6-yl}-2-{octahydropyrrolo[3,4-c]pyrrol-2-yl}pyrimidine-5-carboxamide]	< 0.5 µM
CCOc1nc(N2CCC(NC)C2)ncc1C(=O)Nc1cc(F)c2nn(C)cc2c1 (stereo not shown) [Compound 263, 4-ethoxy-N-(7-fluoro-2-methyl-2H-indazol-5-yl)-2-(3-(methylamino)pyrrolidin-1-yl)pyrimidine-5-carboxamide formate]	< 0.5 µM
CCOc1nc(N2CCC3(CC2)CNC3)ncc1C(=O)Nc1cn2cc(C)nc2c(C)n1 [Compound 86]	< 0.5 µM
CCOc1nc(N2C[C@@H]3CNC[C@]3(C)C2)ncc1C(=O)Nc1cn2cc(C)nc2c(C)n1 (racemic) [Compound 98]	< 0.5 µM
CCOc1nc(N2CCCC(C3CCCN3)C2)ncc1C(=O)Nc1cc(F)c2nc(C)cn2c1 (stereo not shown) [Compound 180]	< 0.5 µM
CCOc1nc(N2CCNCC(O)C2)ncc1C(=O)Nc1cc(F)c2nc(C)cn2c1 (stereo not shown) [Compound 171]	1 to 3 µM
CCOc1nc(N(C)CC2CCNC2)ncc1C(=O)Nc1cc(F)c2nc(C)cn2c1 (stereo not shown) [Compound 210]	0.5 to 1 µM
CCOc1nc(N(C)CC2CCCNC2)ncc1C(=O)Nc1cc(F)c2nc(C)cn2c1 (stereo not shown) [Compound 217]	1 to 3 µM
CCOc1nc(N2CC3(CCNCC3)C2)ncc1C(=O)Nc1cc(F)c2nc(C)cn2c1 [Compound 239]	< 0.5 µM
CCOc1nc(N2CC(C3CCNCC3)C2)ncc1C(=O)Nc1cc(F)c2nc(C)cn2c1 [Compound 141]	0.5 to 1 µM
CCOc1nc(N2CCNCC2C2CC2)ncc1C(=O)Nc1cc(F)c2nc(C)cn2c1 (stereo not shown) [Compound 113]	1 to 3 µM
CCOc1nc(N2CCC3CCNCC3C2)ncc1C(=O)Nc1cc(F)c2nc(C)cn2c1 (stereo not shown) [Compound 135]	0.5 to 1 µM
CCOc1nc(N2CCC(NC)C2)ncc1C(=O)Nc1cc(F)c2nc(C)cn2c1 (stereo not shown) [Compound 229]	< 0.5 µM
CCOc1nc(N2CC[C@H](NC)C2)ncc1C(=O)Nc1cc(F)c2nc(C)cn2c1 [Compound 261, (S)-4-ethoxy-N-(8-fluoro-2-methylimidazo[1,2-a]pyridin-6-yl)-2-(3-(methylamino)pyrrolidin-1-yl)pyrimidine-5-carboxamide formate]	< 0.5 µM
CCOc1nc(N2CCC3(CC2)CNC3C(C)C)ncc1C(=O)Nc1cc(F)c2nc(C)cn2c1 (stereo not shown) [Compound 182]	0.5 to 1 µM
CCOc1nc(N2C[C@@H]3C[C@H]2CN3)ncc1C(=O)Nc1cc(F)c2nc(C)cn2c1 [Compound 233]	0.5 to 1 µM
CCOc1nc(N2CC3CCC2C2CNCC32)ncc1C(=O)Nc1cn2cc(C)nc2c(C)n1 (stereo not shown) [Compound 97]	1 to 3 µM
CCOc1nc(N(C)[C@@H]2C[C@H]3CC[C@@H](C2)N3)ncc1C(=O)Nc1cc(F)c2nc(C)cn2c1 [Compound 186]	< 0.5 µM
COc1nc(NC2CCNCC2)ncc1C(=O)Nc1cn2cc(C)nc2cn1 [Compound 271, 4-methoxy-N-(2-methylimidazo[1,2-a]pyrazin-6-yl)-2-(piperidin-4-ylamino) pyrimidine-5-carboxamide 2,2,2-trifluoroacetate]	> 3 µM
COCc1nc(N(C)CC2CNCCO2)ncc1C(=O)Nc1cc(F)c2nc(C)cn2c1 (stereo not shown) [Compound 189]	> 3 µM
CCOc1nc(N2CCC3(CCNC3)C2)ncc1C(=O)Nc1cc(F)c2nc(C)cn2c1 (stereo not shown) [Compound 234]	< 0.5 µM
CCOc1nc(N2CC3(CCNC3)C2)ncc1C(=O)Nc1cc(F)c2nc(C)cn2c1 [Compound 212]	< 0.5 µM
CCOc1nc(N(CC)C2CCCNCC2)ncc1C(=O)Nc1cn2cc(C)nc2c(C)n1 (stereo not shown) [Compound 249]	> 3 µM
CCOc1nc(N2CCC(C3CCCN3)CC2)ncc1C(=O)Nc1cn2cc(C)nc2c(C)n1 (stereo not shown) [Compound 73]	0.5 to 1 µM
CCOc1nc(N2CCC3(CCNCC3)C2)ncc1C(=O)Nc1cn2cc(C)nc2c(C)n1 [Compound 88]	< 0.5 µM

SMILES	IC50
CCOc1nc(N2CC[C@@H](NC)C2)ncc1C(=O)Nc1ccc2nc(C)cn2c1 [Compound 289, (R)-4-ethoxy-2-(3-(methylamino)pyrrolidin-1-yl)-N-(2-methylimidazo[1,2-a]pyridin-6-yl)pyrimidine-5-carboxamide formate]	1 to 3 µM
CCOc1nc(N2CCC3(CCN3)CC2)ncc1C(=O)Nc1cn2cc(C)nc2c(C)n1 [Compound 64]	< 0.5 µM
CCOc1nc(N2CCC3(CC2)COCCN3)ncc1C(=O)Nc1cn2cc(C)nc2c(C)n1 [Compound 94]	> 3 µM
CCOc1nc(N2CCN[C@H]3CC[C@H]32)ncc1C(=O)Nc1cn2cc(C)nc2c(C)n1 (racemic) [Compound 101]	0.5 to 1 µM
CCOc1nc(N2CC[C@@H]3CNC[C@@H]32)ncc1C(=O)Nc1cc(F)c2nc(C)cn2c1 (racemic) [Compound 209]	< 0.5 µM
CCOc1nc(N2CCC(C3CCCN3)C2)ncc1C(=O)Nc1cn2cc(C)nc2c(C)n1 (stereo not shown) [Compound 38]	1 to 3 µM
CCOc1nc(N2CC[C@@H](NC)C2)ncc1C(=O)Nc1ccc2nc(C)cn2n1 [Compound 317]	> 3 µM
CCOc1nc(N2CCCC(C3CCNCC3)C2)ncc1C(=O)Nc1cc(F)c2nc(C)cn2c1 (stereo not shown) [Compound 146]	< 0.5 µM
CCOc1nc(N2CCN[C@H](C)C2)ncc1C(=O)Nc1cc(F)c2nc(C)cn2c1 [Compound 3, 4-ethoxy-N-{8-fluoro-2-methylimidazo[1,2-a]pyridin-6-yl}-2-[(3R)-3-methylpiperazin-1-yl]pyrimidine-5-carboxamide]	0.5 to 1 µM
CCOc1nc(N2CCC(C3NCC34CCC4)CC2)ncc1C(=O)Nc1cc(F)c2nc(C)cn2c1 (stereo not shown) [Compound 133]	0.5 to 1 µM
CCOc1nc(N2CC3CCCC(C2)N3)ncc1C(=O)Nc1cc(F)c2nc(C)cn2c1 [Compound 185]	1 to 3 µM
CCOc1nc(N2CC3CNCC3C2)ncc1C(=O)Nc1cn2cc(C)nc2c(C)n1 (stereo not shown) [Compound 20, N-{2,8-dimethylimidazo[1,2-a]pyrazin-6-yl}-4-ethoxy-2-{octahydropyrrolo[3,4-c]pyrrol-2-yl}pyrimidine-5-carboxamide]	< 0.5 µM
CCOc1nc(N2CCNC(C)CC2)ncc1C(=O)Nc1cn2cc(C)nc2c(C)n1 (stereo not shown) [Compound 71]	0.5 to 1 µM
CCOc1nc(N(C)C2CCNC2)ncc1C(=O)Nc1cn2cc(C)nc2c(C)n1 (stereo not shown) [Compound 81]	1 to 3 µM
CCOc1nc(N2CCNC(C)C2)ncc1C(=O)Nc1cn2cc(C)nc2c(C)n1 (stereo not shown) [Compound 102]	0.5 to 1 µM
CCOc1nc(N2CCC3(CNC3)C2)ncc1C(=O)Nc1cn2cc(C)nc2c(C)n1 [Compound 78]	< 0.5 µM
CCOc1nc(N2CCC3(CCCNC3)C2)ncc1C(=O)Nc1cn2cc(C)nc2c(C)n1 (stereo not shown) [Compound 106]	> 3 µM
CCOc1nc(N2CCC3(CCNCC3)CC2)ncc1C(=O)Nc1cc(F)c2nc(C)cn2c1 [Compound 207]	< 0.5 µM
CCOc1nc(N2CC3(CCNCC3)CC2C)ncc1C(=O)Nc1cc(F)c2nc(C)cn2c1 (stereo not shown) [Compound 152]	0.5 to 1 µM
CCOc1nc(N2C[C@H]3CNCC[C@H]3C2)ncc1C(=O)Nc1cn2cc(C)nc2c(C)n1 (racemic) [Compound 105]	< 0.5 µM
CCOc1nc(N2CCOC3(CCNCC3)C2)ncc1C(=O)Nc1cc(F)c2nc(C)cn2c1 [Compound 223]	> 3 µM
CCOc1nc(N2CC3C4CCC(NC4)C3C2)ncc1C(=O)Nc1cn2cc(C)nc2c(C)n1 (stereo not shown) [Compound 44]	1 to 3 µM
CCOc1nc(N2CC3CNC(C3)C2)ncc1C(=O)Nc1cc(F)c2nc(C)cn2c1 (stereo not shown) [Compound 134]	1 to 3 µM
CCOc1nc(N2CC3CNCCC32)ncc1C(=O)Nc1cc(F)c2nc(C)cn2c1 (stereo not shown) [Compound 136]	< 0.5 µM
CCOc1nc(N2C3CCC2CC(NC)C3)ncc1C(=O)Nc1cc(F)c2nc(C)cn2c1 (stereo not shown) [Compound 157]	< 0.5 µM
CCOc1nc(N2CCCC(CNC)C2)ncc1C(=O)Nc1cc(F)c2nc(C)cn2c1 (stereo not shown) [Compound 228]	0.5 to 1 µM
CCOc1nc(N2CCOC3(CCNC3)C2)ncc1C(=O)Nc1cc(F)c2nc(C)cn2c1 (stereo not shown) [Compound 195]	1 to 3 µM

Same assay, conditions: Homo sapiens; at 5 μM; PMS1 mini-gene firefly luciferase reporter in HEK293 cells; read-out: PMS1% Effect at 5 μM

SMILES	activation at 5 µM
CCOc1nc(N2CCNC3CC32)ncc1C(=O)Nc1cn2cc(C)nc2c(C)n1 (stereo not shown) [Compound 47]	< 50%
CCOc1nc(C2CCNC2)ncc1C(=O)Nc1cc(F)c2nc(C)cn2c1 (stereo not shown) [Compound 316, 4-ethoxy-N-8-fluoro-2-methylimidazo[1,2-a]pyridin-6-yl-2-(pyrrolidin-3-yl)-pyrimidine-5-carboxamide]	50 to 75%
CCOc1nc(N2CCC(C3(O)CNC3)CC2)ncc1C(=O)Nc1cn2cc(C)nc2c(C)n1 [Compound 75]	< 50%
CCOc1nc(N2CC[C@@H](NC)C2)ncc1C(=O)Nc1cc(F)c2nc(C)cn2c1 (single isomer, unassigned) [Compound 311, hydrochloride]	> 75%
CCOc1nc(N2CCNCC(F)(F)C2)ncc1C(=O)Nc1cc(F)c2nc(C)cn2c1 [Compound 140]	< 50%
CCOc1nc(N2CCC(C3(O)CCNCC3)CC2)ncc1C(=O)Nc1cn2cc(C)nc2c(C)n1 [Compound 66]	< 50%
CCOc1nc(N2CCCC(OC3CNC3)C2)ncc1C(=O)Nc1cc(F)c2nc(C)cn2c1 (stereo not shown) [Compound 153]	50 to 75%
